Laboratory results as given in ChEMBL document CHEMBL3867433, “Synthesis and antimicrobial activity of styryl/pyrrolyl/pyrazolyl sulfonylmethyl-1,3,4-oxadiazolyl amines and styryl/pyrrolyl/pyrazolyl sulfonylmethyl-1,3,4-thiadiazolyl amines” (2016).

Key:
Format in all cases: functional
[1] = test system: Pseudomonas aeruginosa; assay: Antibacterial activity against Pseudomonas aeruginosa at 12.5 ug/well after 24 hrs by agar well diffusion method; details: read-out: DIZ
[2] = test system: Klebsiella pneumoniae; assay: Antibacterial activity against Klebsiella pneumoniae at 100 ug/well after 24 hrs by agar well diffusion method; details: read-out: DIZ
[3] = test system: Klebsiella pneumoniae; assay: Antibacterial activity against Klebsiella pneumoniae at 25 ug/well after 24 hrs by agar well diffusion method; details: read-out: DIZ
[4] = test system: Bacillus subtilis; assay: Antibacterial activity against Bacillus subtilis at 25 ug/well after 24 hrs by agar well diffusion method; details: read-out: DIZ
[5] = test system: Pseudomonas aeruginosa; assay: Antibacterial activity against Pseudomonas aeruginosa at 100 ug/well after 24 hrs by agar well diffusion method; details: read-out: DIZ
[6] = Antifungal activity against Penicillium chrysogenum assessed as inhibition of spore germination at 100 ug/well after 48 hrs by agar well diffusion method
[7] = test system: Bacillus subtilis; assay: Antibacterial activity against Bacillus subtilis at 12.5 ug/well after 24 hrs by agar well diffusion method; details: read-out: DIZ
[8] = test system: Staphylococcus aureus; assay: Antibacterial activity against Staphylococcus aureus at 100 ug/well after 24 hrs by agar well diffusion method; details: read-out: DIZ
[9] = Antifungal activity against Penicillium chrysogenum assessed as inhibition of spore germination at 50 ug/well after 48 hrs by agar well diffusion method
[10] = test system: Aspergillus niger; assay: Antifungal activity against Aspergillus niger assessed as inhibition of spore germination at 25 ug/well after 48 hrs by agar well diffusion method; details: read-out: DIZ
[11] = test system: Staphylococcus aureus; assay: Antibacterial activity against Staphylococcus aureus at 50 ug/well after 24 hrs by agar well diffusion method; details: read-out: DIZ
[12] = test system: Aspergillus niger; assay: Antifungal activity against Aspergillus niger assessed as inhibition of spore germination at 50 ug/well after 48 hrs by agar well diffusion method; details: read-out: DIZ
[13] = test system: Bacillus subtilis; assay: Antibacterial activity against Bacillus subtilis at 100 ug/well after 24 hrs by agar well diffusion method; details: read-out: DIZ
[14] = Antifungal activity against Penicillium chrysogenum assessed as inhibition of spore germination at 25 ug/well after 48 hrs by agar well diffusion method
[15] = test system: Pseudomonas aeruginosa; assay: Antibacterial activity against Pseudomonas aeruginosa at 25 ug/well after 24 hrs by agar well diffusion method; details: read-out: DIZ
[16] = test system: Pseudomonas aeruginosa; assay: Antibacterial activity against Pseudomonas aeruginosa at 50 ug/well after 24 hrs by agar well diffusion method; details: read-out: DIZ
[17] = test system: Bacillus subtilis; assay: Antibacterial activity against Bacillus subtilis at 50 ug/well after 24 hrs by agar well diffusion method; details: read-out: DIZ
[18] = test system: Aspergillus niger; assay: Antifungal activity against Aspergillus niger assessed as inhibition of spore germination at 100 ug/well after 48 hrs by agar well diffusion method; details: read-out: DIZ
[19] = test system: Klebsiella pneumoniae; assay: Antibacterial activity against Klebsiella pneumoniae at 50 ug/well after 24 hrs by agar well diffusion method; details: read-out: DIZ
[20] = test system: Klebsiella pneumoniae; assay: Antibacterial activity against Klebsiella pneumoniae at 12.5 ug/well after 24 hrs by agar well diffusion method; details: read-out: DIZ
[21] = Antifungal activity against Penicillium chrysogenum assessed as inhibition of spore germination at 12.5 ug/well after 48 hrs by agar well diffusion method
[22] = test system: Staphylococcus aureus; assay: Antibacterial activity against Staphylococcus aureus at 12.5 ug/well after 24 hrs by agar well diffusion method; details: read-out: DIZ
[23] = test system: Staphylococcus aureus; assay: Antibacterial activity against Staphylococcus aureus at 25 ug/well after 24 hrs by agar well diffusion method; details: read-out: DIZ
[24] = test system: Aspergillus niger; assay: Antifungal activity against Aspergillus niger assessed as inhibition of spore germination at 12.5 ug/well after 48 hrs by agar well diffusion method; details: read-out: DIZ

Row | Compound | zone of inhibition at 12.5 µg/disc [1] | zone of inhibition at 100 µg/disc [2] | zone of inhibition at 25 µg/disc [3] | zone of inhibition at 25 µg/disc [4] | zone of inhibition at 100 µg/disc [5] | inhibition zone (IZ) [6] | zone of inhibition at 12.5 µg/disc [7] | zone of inhibition at 100 µg/disc [8] | inhibition zone (IZ) [9] | zone of inhibition at 25 µg/disc [10] | zone of inhibition at 50 µg/disc [11] | zone of inhibition at 50 µg/disc [12] | zone of inhibition at 100 µg/disc [13] | inhibition zone (IZ) [14] | zone of inhibition at 25 µg/disc [15] | zone of inhibition at 50 µg/disc [16] | zone of inhibition at 50 µg/disc [17] | zone of inhibition at 100 µg/disc [18] | zone of inhibition at 50 µg/disc [19] | inhibition zone (IZ) [21] | further results
1 | Nc1nnc(CS(=O)(=O)c2n[nH]cc2-c2ccccc2)o1 | 11 mm | 16 mm | 12 mm | 9 mm | 17 mm | 16 mm | 7 mm | 14 mm | 14 mm | 9 mm | 10 mm | 11 mm | 15 mm | 12 mm | 13 mm | 15 mm | 11 mm | 13 mm | 14 mm | – | zone of inhibition at 12.5 µg/disc [20]: 10 mm
2 | Nc1nnc(CS(=O)(=O)c2c[nH]cc2-c2ccccc2)o1 | 8 mm | 13 mm | – | – | 14 mm | 16 mm | – | 11 mm | 14 mm | 8 mm | – | 10 mm | 12 mm | 12 mm | 10 mm | 12 mm | – | 12 mm | 11 mm | 11 mm | –
3 | Cc1ccc(-c2c[nH]cc2S(=O)(=O)Cc2nnc(N)s2)cc1 | 17 mm | 26 mm | 22 mm | 19 mm | 23 mm | 28 mm | 18 mm | 22 mm | 26 mm | 11 mm | 19 mm | 13 mm | 22 mm | 24 mm | 19 mm | 21 mm | 20 mm | 15 mm | 24 mm | 22 mm | zone of inhibition at 12.5 µg/disc [22]: 15 mm; zone of inhibition at 25 µg/disc [23]: 17 mm; zone of inhibition at 12.5 µg/disc [24]: 9 mm; zone of inhibition at 12.5 µg/disc [20]: 20 mm
4 | Nc1nnc(CS(=O)(=O)c2n[nH]cc2-c2ccccc2)s1 | 22 mm | 32 mm | 28 mm | 26 mm | 27 mm | 36 mm | 25 mm | 24 mm | 34 mm | 25 mm | 22 mm | 27 mm | 29 mm | 32 mm | 23 mm | 25 mm | 27 mm | 29 mm | 30 mm | 30 mm | zone of inhibition at 12.5 µg/disc [22]: 20 mm; zone of inhibition at 25 µg/disc [23]: 21 mm; zone of inhibition at 12.5 µg/disc [24]: 23 mm; zone of inhibition at 12.5 µg/disc [20]: 26 mm
5 | Cc1ccc(-c2c[nH]cc2S(=O)(=O)Cc2nnc(N)o2)cc1 | – | 12 mm | – | – | 11 mm | 14 mm | – | 10 mm | 12 mm | – | – | 7 mm | 10 mm | 10 mm | – | 10 mm | – | 9 mm | – | 8 mm | –
6 | Nc1nnc(CS(=O)(=O)/C=C\c2ccccc2)s1 | 23 mm | 33 mm | 29 mm | 28 mm | 29 mm | 35 mm | 27 mm | 25 mm | 36 mm | 27 mm | 23 mm | 29 mm | 31 mm | 34 mm | 25 mm | 27 mm | 29 mm | 31 mm | 31 mm | 29 mm | zone of inhibition at 12.5 µg/disc [22]: 21 mm; zone of inhibition at 25 µg/disc [23]: 22 mm; zone of inhibition at 12.5 µg/disc [24]: 25 mm; zone of inhibition at 12.5 µg/disc [20]: 27 mm
